Reference: article PMC11881906, “Development of xanthone derivatives as effective broad-spectrum antimicrobials: Disrupting cell wall and inhibiting DNA synthesis” (Science Advances, 2025)
Converted amounts (≈) assume the structure as drawn.

How the values were obtained:
A. baumannii ATCC 17978 = assay: MIC, broth microdilution; assay type: cell-based; conditions: Acinetobacter baumannii, ATCC17978; 24-hour incubation, MHB
Experimental: (§1) MIC was determined using the broth microdilution method in accordance with Clinical and Laboratory Standards Institute guidelines. All compounds were dissolved in dimethyl sulfoxide (DMSO; final DMSO concentration of less than 0.5%) and sterile double-distilled water and then diluted with Mueller-Hinton broth (MHB). Each compound’s stock solution was serially twofold diluted, resulting in concentrations ranging from 0.39 to 100 μg/ml, and thereafter added to sterile 96-well plates. All bacterial cell suspensions were adjusted in MHB to attain a starting inoculum of 1 × 10^6 cells/ml. A total of 100 μl volume of the bacterial suspension was then added to each well. Following a 24-hour incubation at 37°C, the optical density at 600 nm (OD600) was confirmed by measuring absorbance at 600 nm with a BioTek microplate reader. […] All measurements were repeated three times with duplicates each time.

A. baumannii R2889 = assay: MIC, broth microdilution; assay type: cell-based; conditions: Acinetobacter baumannii, 24-hour incubation, MHB
Experimental: as §1

K. pneumonia ATCC 10031 = assay: MIC, broth microdilution; assay type: cell-based; conditions: Klebsiella pneumoniae, ATCC10031; 24-hour incubation, MHB
Experimental: as §1

K. pneumonia ATCC 14581 = assay: MIC, broth microdilution; assay type: cell-based; conditions: Klebsiella pneumoniae, ATCC14581; 24-hour incubation, MHB
Experimental: as §1

MRSA N315 = assay: MIC, broth microdilution; assay type: cell-based; conditions: Staphylococcus aureus, 24-hour incubation, MHB, read-out: MIC90 MRSA N315
Experimental: as §1

MRSA NCTC 10442 = assay: MIC, broth microdilution; assay type: cell-based; conditions: Staphylococcus aureus; 24-hour incubation, MHB; read-out: MIC90 MRSA NCTC 10442
Experimental: as §1

P. aeruginosa ATCC 9027 [1] = assay: MIC, broth microdilution; assay type: cell-based; conditions: Pseudomonas aeruginosa, ATCC9027; 24-hour incubation, MHB
Experimental: as §1

S. aureus ATCC 29213 [2] = assay: MIC, broth microdilution; assay type: cell-based; conditions: Staphylococcus aureus, ATCC29213, 24 h, 24-hour incubation, MHB; read-out: MIC90 S. aureus ATCC 29213
Experimental: as §1

E. coli ATCC 25922 = assay: MIC, broth microdilution; assay type: cell-based, Escherichia coli; conditions: 24-hour incubation, MHB
Experimental: as §1

rabbit erythrocytes = assay: Hemolysis assay; assay type: cell-based; conditions: concentration causing 50% hemolysis of red blood cells; 1 hour, 37°C
Experimental: The hemolytic activity of antimicrobial agents was investigated as previously described ([70]). Briefly, the rabbit erythrocytes were centrifuged at 2500 rpm for 3 min before being washed twice with sterile phosphate-buffered saline (PBS) (pH 7.4). Subsequently, the erythrocytes were diluted with PBS to a final concentration of 8% (v/v). The DMSO-dissolved compounds were twofold serially diluted in PBS to achieve a final concentration with DMSO less than 0.5%. […] Sterile PBS and 0.2% Triton X-100 were used as negative and positive controls, respectively. After 1 hour of incubation at 37°C, the tested samples were centrifuged at 2500 rpm for 5 min, and aliquots of the supernatant were added to 96-well microplates. The hemoglobin release was determined by measuring the absorbance at 576 nm using a BioTek multimode reader. The percentage of hemolytic activity was calculated using the following formula: Hemolysis rate (%) = [OD576 (compound) − OD576 (PBS)]/[OD576 (Triton X-100) − OD576 (PBS)] × 100. All measurements were repeated three times with duplicates each time.

Gram-positive bacteria = assay: MIC, summary over Gram-positive strains; assay type: cell-based; conditions: read-out: MICs against Gram-positive bacteria, three Gram-positive strains
Experimental: as §1

K. pneumoniae = assay: MIC, summary over K. pneumoniae strains; assay type: cell-based; conditions: Klebsiella pneumoniae, two strains; read-out: MICs against K. pneumoniae
Experimental: as §1

CCK-8 cytotoxicity assay = assay type: cell-based; conditions: mouse, NCTC clone 929 fibroblast cells, 25 μg/ml, read-out: %Viable cells NCTC clone 929 cells
Experimental: Cytotoxicity of the compound tested was assessed by CCK-8 assays as previously described ([71]). […] Following a 24-hour incubation, 10 μl of CCK-8 reagent was added to each well and incubated for 1 hour. The absorbance at 450 nm was measured by a microplate reader. All measurements were repeated three times with duplicates each time.

P. aeruginosa ATCC 9027 [3] = assay: Murine corneal infection model; assay type: in vivo, mice; conditions: topical, 2 days; XT17 5 mg/ml, gatifloxacin 3 mg/ml; vs 5% glucose control
Excerpt: Female C57BL/6 mice (average weight, 20 g) were used for the in vivo efficacy experiments. Mice were housed in a specific pathogen–free facility on a 12-hour light-dark cycle, under the condition with ad libitum access to irradiation sterilized rodent diet and aseptic water. […]. These in vivo experiments were approved by the Experimental Animal Center of South China Agricultural University and conducted in accordance with the policies of the Ministry of Health of China.
The in vivo efficacy of compound XT17 was investigated in a murine corneal infection model. Before infection, the mice were immunosuppressed with three intraperitoneal injections of cyclophosphamide (100 mg/kg) over 5 days. After anesthesia with 2.5% avertin (500 mg/kg, ip), the left corneas of mice were scratched with 15 μl of S. aureus ATCC 29213 or P. aeruginosa ATCC 9027 (approximately 5 × 10^7 CFU/ml). Following 1 day of infection, the infected mice were randomly assigned into […] (n = 5) and subsequently administered with 0.5% compound XT17, 5% glucose solution, 5% vancomycin, or 0.3% gatifloxacin topically. S. aureus–caused murine corneal infections were treated four times a day for three consecutive days. Only 2 days of treatment were given for P. aeruginosa–caused murine corneal infections. On the first day, the drug was administered every 20 min for 1 hour and then three times at 2-hour intervals on the second day. The mice were given a 5% glucose solution as a negative control in the absence of any antimicrobial agent treatment. The infected corneas were collected after the mice were euthanized, and the number of viable bacteria was counted using MHA plates.

S. aureus ATCC 29213 [4] = assay: Serial passage resistance induction; assay type: cell-based, Staphylococcus aureus; conditions: 20-day passages at 0.5× MIC
Experimental: The bacteria were grown in a medium containing 0.5× MIC of each compound to prepare the bacterial suspension for the next MIC determination. The MICs were then recorded after incubation at 37°C for 24 hours. Daily passages were continued until the initial MIC increased by more than fourfold. The stability of acquired resistance was investigated by MIC determination and repeated for 20 days.

Which MIC90 (A. baumannii ATCC 17978) does the source give for `CC(C)=CCOc1cc(OCCCCCCNC(=N)N)cc2oc3cc(OCCCCCCNC(=N)N)ccc3c(=O)c12` [XT44] here?
The MIC90 was 6.25 µg/mL (≈ 10.5 µM).

And the MIC90 (A. baumannii R2889)?
The MIC90 was 12.5 µg/mL (≈ 21 µM).

And the MIC90 (K. pneumonia ATCC 10031)?
The MIC90 was 0.78 µg/mL (≈ 1.31 µM).

And the MIC90 (K. pneumonia ATCC 14581)?
Its MIC90 is 0.78 µg/mL (≈ 1.31 µM).

What about the MIC90 (MRSA N315) of the same compound?
Its MIC90 is 0.098 µg/mL (≈ 0.165 µM).

What about the MIC90 (MRSA NCTC 10442) of the same compound?
Its MIC90 is 0.098 µg/mL (≈ 0.165 µM).

And the MIC90 (P. aeruginosa ATCC 9027 [1])?
The MIC90 was 25 µg/mL (≈ 42 µM).

And the MIC90 (S. aureus ATCC 29213 [2])?
Its MIC90 is 0.098 µg/mL (≈ 0.165 µM).

And the “MIC90 E. coli ATCC 25922” value (E. coli ATCC 25922)?
The value was 1.56 µg/mL (≈ 2.62 µM).

And the MIC90 (E. coli ATCC 25922; Escherichia coli, ATCC25922, 24 h, read-out: MIC90 E. coli ATCC 25922)?
Its MIC90 is 1.56 to 12.5 µg/mL (≈ 2.62 to 21 µM).

And the HC50 (rabbit erythrocytes)?
Its HC50 is >200 µg/mL.

And the MIC (Gram-positive bacteria)?
Its MIC is 0.098 to 1.56 µg/mL (≈ 0.165 to 2.62 µM).

And the MIC (K. pneumoniae)?
The MIC was 0.78 µg/mL (≈ 1.31 µM).

And the viability at 24 h, 25 μg/ml (CCK-8 cytotoxicity assay)?
The viability at 24 h, 25 μg/ml was 4.87 ± 0.4%.

For `COc1c(N2CCNC(C)C2)c(F)cc2c(=O)c(C(=O)O)cn(C3CC3)c12` (stereo not shown) [gatifloxacin, reference compound], which “log reduction in viable bacterial colonies in the infected corneas” value (P. aeruginosa ATCC 9027 [3]) is on record?
The value was 3.08 log.

With `CCn1cc(C(=O)O)c(=O)c2cc(F)c(N3CCNCC3)cc21` [norfloxacin, reference compound] as the compound, how does the “increase in MIC values during passages” value (S. aureus ATCC 29213 [4]) read?
The value was “approximately 16 fold”.
